pEC50, pKd: −log10 of the molar value. Where two headings read alike, the source gives them in different places.
Key:
human PPARα = target: T1, human PPARα (Homo sapiens, UniProt Q07869); assay: LanthaScreen TR-FRET coactivator recruitment assay, PPARα LBD (PGC1α peptide); format: biochemical; details: for Emax: read-out: Emax, maximum efficacy, PPARα; for pEC50: TR-FRET coactivator recruitment, human PPARα LBD, read-out: EC50, half maximal effective concentration, PPARα
T1 construct: purchased ThermoFisher Scientific PV4684
T1 sequence (Q07869 239-466 limits assumed): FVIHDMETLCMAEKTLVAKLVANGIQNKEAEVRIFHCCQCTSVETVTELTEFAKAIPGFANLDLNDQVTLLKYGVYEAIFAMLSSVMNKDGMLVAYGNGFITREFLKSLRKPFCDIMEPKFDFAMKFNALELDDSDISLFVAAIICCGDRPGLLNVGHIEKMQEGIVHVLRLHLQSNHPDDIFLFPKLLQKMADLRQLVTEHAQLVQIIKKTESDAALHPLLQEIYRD

human PPARδ = target: T2, human PPARδ (Homo sapiens, UniProt Q03181); assay: LanthaScreen TR-FRET coactivator recruitment assay, PPARδ LBD (C33 peptide); format: biochemical; details: for Emax: read-out: Emax, maximum efficacy, PPARδ; for pEC50: TR-FRET coactivator recruitment, human PPARδ LBD, read-out: EC50, half maximal effective concentration, PPARδ
T2 construct: purchased ThermoFisher Scientific PV4685
T2 sequence (Q03181 211-439 limits assumed): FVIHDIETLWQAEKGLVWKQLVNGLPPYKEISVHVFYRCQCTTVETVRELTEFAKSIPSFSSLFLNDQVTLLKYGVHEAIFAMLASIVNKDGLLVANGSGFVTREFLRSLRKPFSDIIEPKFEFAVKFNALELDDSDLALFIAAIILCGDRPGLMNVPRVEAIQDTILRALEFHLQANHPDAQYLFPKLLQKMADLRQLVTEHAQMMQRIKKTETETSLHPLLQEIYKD

PPARγ = target: PPARγ; set-up: method as in PMID 32909075; details: lowest Kd among nine lipids tested in vitro; cited from earlier work
Angptl4 = Angptl4 mRNA expression (qPCR) in 3T3-L1 preadipocytes, without and with PPAR antagonists; format: cell-based, murine; details: agonist and antagonist both 10 μM, 3T3-L1 cells
[1] = % relative to agonist control GW7647 at the highest concentration, 95% confidence intervals in parentheses
[2] = 95% confidence intervals in parentheses
[3] = % relative to agonist control GW501516 at the highest concentration, 95% confidence intervals in parentheses

| SMILES | Emax (human PPARα; [1]) | pEC50 (human PPARα; [2]) | Emax (human PPARδ; [3]) | pEC50 (human PPARδ; [2]) | also measured |
| --- | --- | --- | --- | --- | --- |
| CCC/C=C\CCCCCCCCCC(=O)O [C15:1 cis-11, (11Z)-pentadec-11-enoic acid] | 26.6% | 4.89 | 18.9% | 4.59 | – |
| CCC[C@@H]1C[C@@H]1CCCCCCCCCC(=O)O [C15Δ1 cis-11, (11S,12R)-11,12-methylenepentadecanoic acid] | 26.3% | 4.85 | 14.9% | 4.59 | – |
| CCCCCC/C=C\CCCCCCCC(=O)O [C16:1 cis-9, (9Z)-hexadec-9-enoic acid] | 59.1% | 5.67 | 39.5% | 4.58 | – |
| CCCCCC[C@@H]1C[C@@H]1CCCCCCCC(=O)O [C16Δ1 cis-9, (9S,10R)-9,10-methylenehexadecanoic acid] | 62.3% | 4.91 | 58.1% | 4.66 | – |
| CCC/C=C\CCCCCCCCCCCC(=O)O [C17:1 cis-13, (13Z)-heptadec-13-enoic acid] | 70% | 5.33 | 30.6% | 4.75 | Emax, maximum efficacy, PPARα (human PPARα; [1]): 69.86 (43, 96.7) a % |
| CCC[C@@H]1C[C@@H]1CCCCCCCCCCCC(=O)O [C17Δ1 cis-13, (13S,14R)-13,14-methyleneheptadecanoic acid] | 65% | 5.39 | 37.1% | 4.57 | Emax, maximum efficacy, PPARα (human PPARα; [1]): 65.01 (52.5, 77.5) a % |
| CCCCCCCC/C=C\CCCCCCCC(=O)O [C18:1 cis-9, (9Z)-octadec-9-enoic acid] | – | 6.04 | – | 4.73 | Emax (human PPARα): 52%; Emax (human PPARδ): 51.9% |
| CCCCCC/C=C\CCCCCCCCCC(=O)O [C18:1 cis-11, (11Z)-octadec-11-enoic acid] | 45.2% | 5.46 | 43.5% | 4.66 | – |
| CCCCCCCC[C@@H]1C[C@@H]1CCCCCCCC(=O)O [C18Δ1 cis-9, (9S,10R)-9,10-methyleneoctadecanoic acid] | 51.4% | 5.28 | ~74% | 4.57 | Emax, maximum efficacy, PPARδ (human PPARδ; [3]): 73.56 (65.9, 81.2) b % |
| CCCCCC[C@@H]1C[C@@H]1CCCCCCCCCC(=O)O [C18Δ1 cis-11, (11S,12R)-11,12-methyleneoctadecanoic acid] | 54.7% | 5.12 | 57% | 4.59 | Emax, maximum efficacy, PPARδ (human PPARδ; [3]): 57.03 (52.5, 61.6) a %; pKd (PPARγ): ~4.00 |
| O=C(NCCS(=O)(=O)c1ccc(C(F)(F)F)cn1)c1ccc(Cl)cc1 [GSK3787] | – | – | – | – | Reduction of PPAR agonist-mediated Angptl4 expression by the antagonist (Angptl4): ~50% |
| CCC(=O)NC[C@H](Cc1ccc(OCCc2nc(-c3ccccc3)oc2C)cc1)N/C(C)=C\C(=O)c1ccc(C(F)(F)F)cc1 [GW6471] | – | – | – | – | Reduction of PPAR agonist-mediated Angptl4 expression by the antagonist (Angptl4): did not inhibit |
| O=C(Nc1ccncc1)c1cc([N+](=O)[O-])ccc1Cl [T0070907] | – | – | – | – | Reduction of PPAR agonist-mediated Angptl4 expression by the antagonist (Angptl4): ~50% |

Continued, in another order:

| Emax (human PPARα; [1]) | pEC50 (human PPARα; [2]) | Emax (human PPARδ; [3]) | pEC50 (human PPARδ; [2]) | SMILES | also measured |
| --- | --- | --- | --- | --- | --- |
| 36.8% | 5.02 | 23.7% | 4.59 | CCCCCCCCCCCCCCC(=O)O [C15, Pentadecanoic acid] | – |
| 52.6% | 5.27 | – | – | CCCCCCCCCCCCCCCC(=O)O [C16, Hexadecanoic acid] | – |
| 58.9% | 5.30 | 41.3% | 4.65 | CCCCCCCCCCCCCCCCC(=O)O [C17, Heptadecanoic acid] | – |
| 55.9% | 5.20 | – | – | CCCCCCCCCCCCCCCCCC(=O)O [C18, Octadecanoic acid] | – |
| 86.6% | – | – | – | CC(C)(Sc1ccc(CCN(CCCCC2CCCCC2)C(=O)NC2CCCCC2)cc1)C(=O)O [GW7647] | – |
